Like-named read-outs stand apart in the source and are kept apart here.
Tests used:
[1] = target: T1, integrin αVβ3 (Homo sapiens, UniProt P05106+P06756); experiment: ELISA-like competitive integrin binding assay (vitronectin-coated plates)
T1 construct: using the isolated extracellular domain of integrins αVβ3 and α5β1; purchased Sino Biological
Procedure: (§1) An ELISA-like assay using the isolated extracellular domain of integrins αVβ3 and α5β1 was performed in flat-bottom 96-well immuno plates (Brand) to determine the activities of the synthesized compounds. All wells were coated overnight with the native integrin ligand vitronectin or fibronectin (1) (Table 1) in a carbonate buffer (150 µl/well), followed by washing of each well with the PBS-T buffer (3 × 200 µl/well) (Table 1) and blocking for 1 h with the TS-B buffer (150 µl/well) at RT. […] The protein-coated assay plate was washed with the PBS-T buffer (3 × 200 µl/well), and 50 µl of the dilution series was transferred to the assay plate wells B–G. The TS-B buffer was filled into row A (100 µl/well) as the negative control and row H (50 µl/well) as the positive control. Afterward, the corresponding human integrin (2, 50 µl/well) (Table 1) in the TS-B buffer was added to row B–H and incubated for 1 h at RT. After washing the assay plate with the PBS-T buffer (3 × 200 µl/well), the primary antibody (3, 100 µl/well) (Table 1) was transferred to each well and incubated for 1 h at RT. Then the plate was washed with the PBS-T buffer (3 × 200 µl/well), treated with the secondary antibody (4, 100 µl/well) (Table 1), and incubated for 1 h at RT. The plate was washed with the PBS-T buffer (3 × 200 µl/well), and SeramunBlau® fast2 (Seramun Diagnostics GmbH, 50 µl/well) was added to each well. Staining was stopped with 3 M aq. […] The absorbance was measured with a plate reader at 450 nm and corrected by subtraction of the absorbance at 620 nm. Afterward, the resulting values were plotted and analyzed using OriginPro® 2020b where the inflection point of a DoseResp fit describes the IC50 value. All compounds were tested in duplicates or triplicates for both integrins.
(§2) The affinities (Table 4) of the RGD mimetics (Table 3) toward the integrins αVβ3 and α5β1 were determined in a competitive enzyme-linked immunosorbent assay (ELISA) using recombinant human integrins with the native ligands vitronectin and fibronectin as described in the literature ([Mas-Moruno et al., 2016b]). […]
(§3) Table S1: Proteins and buffers applied in the ELISA-like assay.
(§4) An ELISA-like assay using the isolated extracellular domain of integrins αVβ3 and α5β1 was performed in flat-bottom 96-well immuno plates (Brand) to determine the activities of the synthesised compounds.
(§5) All wells were coated overnight with the native integrin ligand vitronectin or fibronectin (Table S1, (1)) in carbonate buffer (150 µL/well), followed by washing of each well with PBS-T buffer (3×200 µL/well) (Table S1) and blocking for 1 h with TS-B buffer (150 µL/well) at RT. A dilution […]
(§6) 1:10 dilution) in TS-B buffer. The protein-coated assay plate was washed with PBS-T buffer (3×200 µL/well) and 50 µL of the dilution series was transferred to the assay plate wells B-G. TS-B buffer was filled into row A (100 µL/well) as negative control and row H (50 µL/well) as positive control. Afterwards, the corresponding human integrin (2, 50 µL/well)) (Table S1) in TS-B buffer was added to row B-H and incubated for 1 h at RT. After washing the assay plate with PBS-T buffer (3×200 µL/well) the primary antibody (3, 100 µL/well) (Table S1) was transferred to each well and incubated for 1 h at RT. Then the plate was washed with PBS-T buffer (3×200 µL/well), treated with […]

[2] = target: T2, integrin α5β1 (Homo sapiens, UniProt P05556+P08648); experiment: ELISA-like competitive integrin binding assay (fibronectin-coated plates)
T2 construct: using the isolated extracellular domain of integrins αVβ3 and α5β1; purchased R&D
Procedure: as §1, §2, §3, §4, §5, §6

[3] = isolated extracellular domain of human integrin αVβ3, ligand vitronectin, Cilengitide as reference on all plates
[4] = isolated extracellular domain of human integrin α5β1, ligand fibronectin, Cilengitide as reference on all plates

Structure (SMILES) | IC50 [1] | IC50 [2] | IC50 [1, 3] | IC50 [2, 4]
O=C(N[C@@H](Cc1ccc(OCCCNC2=NCCN2)cc1)C(=O)O)c1ccccc1 [5aa] | 38.5 ± 24.3 nM | 25.2 ± 7.35 nM |  | 
O=C(NC(Cc1ccc(OCCCNc2ncccn2)cc1)C(=O)O)c1ccccc1 (stereo not shown) [5ab] |  |  | 1310 nM | > 10000 nM
O=C(N[C@@H](Cc1ccc(OCCCNC2=NCCCN2)cc1)C(=O)O)c1ccccc1 [5ac] | 18.1 ± 3.68 nM | 17.4 ± 3.34 nM |  | 
O=C(N[C@@H](Cc1ccc(OCCCNC2=NCCN2)cc1)C(=O)O)c1ccc(O)cc1 [5ba] |  |  | 38.8 ± 19.2 nM | 43.4 ± 24.4 nM
O=C(N[C@@H](Cc1ccc(OCCCNc2ncccn2)cc1)C(=O)O)c1ccc(O)cc1 [5bb] | 6530 nM | > 10000 nM |  | 
O=C(NC(Cc1ccc(OCCCNC2=NCCCN2)cc1)C(=O)O)c1ccc(O)cc1 (stereo not shown) [5bc] |  |  | 70.4 ± 0.57 nM | 18.5 ± 3.65 nM
O=C(N[C@@H](Cc1ccc(OCCCNC2=NCCN2)cc1)C(=O)O)c1cccc(O)c1 [5ca] | 9.29 ± 5.77 nM | 30.5 ± 20.7 nM |  | 
O=C(N[C@@H](Cc1ccc(OCCCNc2ncccn2)cc1)C(=O)O)c1cccc(O)c1 [5cb] | 7700 nM | > 10000 nM |  | 
O=C(N[C@@H](Cc1ccc(OCCCNC2=NCCCN2)cc1)C(=O)O)c1cccc(O)c1 [5cc] | 452 ± 120 nM | 32.8 ± 11.2 nM |  | 
O=C(N[C@@H](Cc1ccc(OCCCNC2=NCCN2)cc1)C(=O)O)OCc1ccccc1 [5da] | 1.32 ± 0.11 nM | 162 ± 36 nM |  | 
O=C(N[C@@H](Cc1ccc(OCCCNc2ncccn2)cc1)C(=O)O)OCc1ccccc1 [5db] | 237 ± 69.7 nM | > 10000 nM |  | 
O=C(N[C@@H](Cc1ccc(OCCCNC2=NCCCN2)cc1)C(=O)O)OCc1ccccc1 [5dc] | 4.68 ± 4.47 nM | 71.6 ± 16.1 nM |  | 
O=C(N[C@@H](Cc1ccc(OCCCCNC2=NCCN2)cc1)C(=O)O)c1ccccc1 [6aa] | 25.8 ± 6.77 nM | 175 ± 73.7 nM |  | 
O=C(N[C@@H](Cc1ccc(OCCCCNc2ncccn2)cc1)C(=O)O)c1ccccc1 [6ab] | 6170 nM | > 10000 nM |  | 
O=C(NC(Cc1ccc(OCCCCNC2=NCCCN2)cc1)C(=O)O)c1ccccc1 (stereo not shown) [6ac] |  |  | 32.8 ± 17.6 nM | 17.5 ± 6.76 nM
O=C(N[C@@H](Cc1ccc(OCCCCNC2=NCCN2)cc1)C(=O)O)c1ccc(O)cc1 [6ba] | 1900 ± 175 nM | 35.2 ± 18.4 nM |  | 
O=C(NC(Cc1ccc(OCCCCNc2ncccn2)cc1)C(=O)O)c1ccc(O)cc1 (stereo not shown) [6bb] |  |  | 5290 nM | > 10000 nM
O=C(N[C@@H](Cc1ccc(OCCCCNC2=NCCCN2)cc1)C(=O)O)c1ccc(O)cc1 [6bc] | 38.7 ± 15.5 nM | 511 ± 183 nM |  | 
O=C(N[C@@H](Cc1ccc(OCCCCNC2=NCCN2)cc1)C(=O)O)c1cccc(O)c1 [6ca] |  |  | 1.01 ± 0.56 nM | 19.9 ± 8.7 nM

Structure (SMILES) | IC50 [1] | IC50 [2] | IC50 [1, 3] | IC50 [2, 4]
O=C(NC(Cc1ccc(OCCCCNc2ncccn2)cc1)C(=O)O)c1cccc(O)c1 (stereo not shown) [6cb] |  |  | 1850 ± 241 nM | > 10000 nM
O=C(N[C@@H](Cc1ccc(OCCCCNC2=NCCCN2)cc1)C(=O)O)c1cccc(O)c1 [6cc] | 90.4 ± 31.3 nM | 107 ± 32 nM |  | 
O=C(N[C@@H](Cc1ccc(OCCCCNC2=NCCN2)cc1)C(=O)O)OCc1ccccc1 [6da] | 1.2 ± 0.11 nM | 901 ± 223 nM |  | 
O=C(N[C@@H](Cc1ccc(OCCCCNC2=NCCCN2)cc1)C(=O)O)OCc1ccccc1 [6dc] | 0.57 ± 0.03 nM | 745 ± 117 nM |  | 
O=C(N[C@@H](Cc1ccc(OCCCCCNC2=NCCN2)cc1)C(=O)O)c1ccccc1 [7aa] | 38.5 ± 9.02 nM | 1690 nM |  | 
O=C(NC(Cc1ccc(OCCCCCNc2ncccn2)cc1)C(=O)O)c1ccccc1 (stereo not shown) [7ab] |  |  | 8770 nM | > 10000 nM
O=C(N[C@@H](Cc1ccc(OCCCCCNC2=NCCCN2)cc1)C(=O)O)c1ccccc1 [7ac] | 58.8 ± 14.4 nM | 2770 nM |  | 
O=C(NC(Cc1ccc(OCCCCCNC2=NCCN2)cc1)C(=O)O)c1ccc(O)cc1 (stereo not shown) [7ba] |  |  | 2.01 ± 0.4 nM | 1650 nM
O=C(N[C@@H](Cc1ccc(OCCCCCNc2ncccn2)cc1)C(=O)O)c1ccc(O)cc1 [7bb] | 8840 nM | > 10000 nM |  | 
O=C(N[C@@H](Cc1ccc(OCCCCCNC2=NCCCN2)cc1)C(=O)O)c1ccc(O)cc1 [7bc] | 36.4 ± 14.3 nM | 103 ± 54.4 nM |  | 
O=C(N[C@@H](Cc1ccc(OCCCCCNC2=NCCN2)cc1)C(=O)O)c1cccc(O)c1 [7ca] | 98.1 ± 74.8 nM | 6080 nM |  | 
O=C(NC(Cc1ccc(OCCCCCNc2ncccn2)cc1)C(=O)O)c1cccc(O)c1 (stereo not shown) [7cb] |  |  | 2890 nM | > 10000 nM
O=C(N[C@@H](Cc1ccc(OCCCCCNC2=NCCCN2)cc1)C(=O)O)c1cccc(O)c1 [7cc] |  |  | 42.9 ± 9.47 nM | 210 ± 44.8 nM
O=C(N[C@@H](Cc1ccc(OCCCCCNC2=NCCN2)cc1)C(=O)O)OCc1ccccc1 [7da] | 3.76 ± 1.98 nM | 7750 nM |  | 
O=C(N[C@@H](Cc1ccc(OCCCCCNc2ncccn2)cc1)C(=O)O)OCc1ccccc1 [7db] | 2630 nM | 8360 nM |  | 
O=C(N[C@@H](Cc1ccc(OCCCCCNC2=NCCCN2)cc1)C(=O)O)OCc1ccccc1 [7dc] | 2.93 ± 0.12 nM | > 10000 nM |  | 
[N-]=[N+]=NCCOCCOCCOc1ccc(C(=O)N[C@@H](Cc2ccc(OCCCNC3=NCCN3)cc2)C(=O)O)cc1 [10a] | 278 ± 69.2 nM | 40 ± 6.5 nM |  | 
[N-]=[N+]=NCCOCCOCCOc1ccc(C(=O)N[C@@H](Cc2ccc(OCCCCNC3=NCCN3)cc2)C(=O)O)cc1 [10b] | 129 ± 2.35 nM | 404 ± 282 nM |  | 
[N-]=[N+]=NCCOCCOCCOc1ccc(C(=O)N[C@@H](Cc2ccc(OCCCCCNC3=NCCN3)cc2)C(=O)O)cc1 [10c] | 21 ± 5.84 nM | 136 ± 27.4 nM |  | 

— PMC9035832, “Synthesis and Evaluation of a Non-Peptide Small-Molecule Drug Conjugate Targeting Integrin αVβ3” (Frontiers in Chemistry, 2022)
